Measurements from ChEMBL document CHEMBL1201862, “PubChem BioAssay data set” (2004).
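Exposure lasted 48 hours, with cells grown in 96-well plates and compounds tested at five concentrations. At the GI50, growth is halved.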 Activity calls are given as the source filed them. Cut-off read from the data, not from the text of the source: active = GI50 up to about 1.1 µM and inactive = higher.

How the values were obtained:
Experiment in all cases: growth of human tumour cells (NCI), 48 h
[1] = tested on: MDA-MB-435
[2] = tested on: 786-0
[3] = tested on: EKVX
[4] = tested on: BT-549
[5] = tested on: HCT-15
[6] = tested on: SNB-19
[7] = tested on: OVCAR-5
[8] = tested on: NCI-H226
[9] = tested on: SR
[10] = tested on: OVCAR-4
[11] = tested on: COLO 205
[12] = tested on: LOX IMVI
[13] = tested on: KM12
[14] = tested on: OVCAR-8
[15] = tested on: SNB-75
[16] = tested on: SN12C
[17] = tested on: SK-OV-3
[18] = tested on: CCRF-CEM
[19] = tested on: HOP-92

For `CNc1nc(=S)[nH]c2sc3c(c12)CCCC3`, the GI50 [1] was > 75 µM (inactive), the GI50 [2] was > 75 µM (inactive) and the GI50 [3] was 45.1 µM (inactive). For the same compound, the GI50 [4] was > 75 µM (inactive), the GI50 [5] was over 75 µM and the GI50 [6] was > 75 µM (inactive). The GI50 [7] was > 75 µM (inactive), the GI50 [8] was > 75 µM (inactive) and the GI50 [9] was > 75 µM (inactive). The GI50 [10] was > 75 µM (inactive), the GI50 [11] was > 75 µM (inactive) and the GI50 [12] was > 75 µM (inactive). For the same compound, the GI50 [13] was > 75 µM (inactive), the GI50 [14] was > 75 µM (inactive) and the GI50 [15] was > 75 µM (inactive). The GI50 [16] was > 75 µM (inactive).
With `C=CCNC1=C2C[C@@H](C)C[C@@H](OC)[C@H](OC(=O)CCCCN)[C@H](C)/C=C(\C)[C@@H](OC(N)=O)[C@H](OC)/C=C\C=C(/C)C(=O)NC(=CC1=O)C2=O` the GI50 [1] was 12.8 µM (inactive), the GI50 [2] was 13.4 µM (inactive) and the GI50 [3] was 13.7 µM (inactive). For the same compound, the GI50 [4] was 19 µM (inactive), the GI50 [5] was 18.7 µM and the GI50 [6] was 11.3 µM (inactive). For the same compound, the GI50 [7] was 19 µM (inactive), the GI50 [9] was 4.93 µM (inactive) and the GI50 [10] was 15.8 µM (inactive). For the same compound, the GI50 [11] was 5.22 µM (inactive), the GI50 [12] was 12.6 µM (inactive) and the GI50 [17] was 6.31 µM (inactive). For the same compound, the GI50 [18] was 7.01 µM (inactive), the GI50 [13] was 4.97 µM (inactive) and the GI50 [14] was 19.4 µM (inactive). For the same compound, the GI50 [15] was 5.51 µM (inactive), the GI50 [19] was 18.8 µM (inactive) and the GI50 [16] was 13 µM (inactive).
With `CCOC(=O)c1sc2nc(SC)nc(Nc3ccc4c(c3)OCCO4)c2c1N` the GI50 [1] was 18 µM (inactive), the GI50 [3] was 9.59 µM (inactive) and the GI50 [4] was 16 µM (inactive). The GI50 [6] was 17.6 µM (inactive), the GI50 [7] was 17.1 µM (inactive) and the GI50 [8] was 3.33 µM (inactive). For the same compound, the GI50 [9] was 20.5 µM (inactive), the GI50 [10] was 10.7 µM (inactive) and the GI50 [11] was 5.45 µM (inactive). For the same compound, the GI50 [12] was 30.6 µM (inactive), the GI50 [18] was 16.9 µM (inactive) and the GI50 [13] was 44.6 µM (inactive). The GI50 [14] was 5.12 µM (inactive), the GI50 [19] was 13.1 µM (inactive) and the GI50 [16] was 8.49 µM (inactive).
In the case of `O=C1Nc2ccccc2/C1=N/N=c1\cccc[nH]1`, the GI50 [1] was > 100 µM (inactive), the GI50 [2] was 12.9 µM (inactive) and the GI50 [3] was 14.5 µM (inactive). For the same compound, the GI50 [4] was 43.6 µM (inactive), the GI50 [5] was 30.3 µM and the GI50 [6] was 30.7 µM (inactive). For the same compound, the GI50 [7] was 51.5 µM (inactive), the GI50 [8] was 16.1 µM (inactive) and the GI50 [9] was 14.3 µM (inactive). For the same compound, the GI50 [10] was 20.2 µM (inactive), the GI50 [11] was 33.7 µM (inactive) and the GI50 [12] was 28.8 µM (inactive). For the same compound, the GI50 [17] was 18.6 µM (inactive), the GI50 [18] was 18.8 µM (inactive) and the GI50 [13] was 10.8 µM (inactive). For the same compound, the GI50 [14] was 11.9 µM (inactive), the GI50 [15] was 21.5 µM (inactive) and the GI50 [16] was 29.2 µM (inactive).
With `O=C1CSC(c2cccc([N+](=O)[O-])c2)N1c1ccc(-n2c(-c3ccccc3)nc3ccccc3c2=O)cc1` (stereo not given) the GI50 [1] was > 100 µM (inactive), the GI50 [2] was > 100 µM (inactive) and the GI50 [3] was > 100 µM (inactive). For the same compound, the GI50 [4] was 28.2 µM (inactive), the GI50 [5] was 30.5 µM and the GI50 [6] was > 100 µM (inactive). For the same compound, the GI50 [7] was > 100 µM (inactive), the GI50 [8] was > 100 µM (inactive) and the GI50 [9] was 84.3 µM (inactive). The GI50 [10] was > 100 µM (inactive), the GI50 [11] was > 100 µM (inactive) and the GI50 [12] was > 100 µM (inactive). The GI50 [17] was 26.2 µM (inactive), the GI50 [18] was > 100 µM (inactive) and the GI50 [13] was > 100 µM (inactive). For the same compound, the GI50 [14] was > 100 µM (inactive), the GI50 [19] was 94.8 µM (inactive) and the GI50 [16] was > 100 µM (inactive).
In the case of `CC1(C)N=C(N)N=C(N)N1c1cccc(OCc2cccc(N)c2)c1`, the GI50 [1] was 16.4 µM (inactive), the GI50 [2] was 10.9 µM (inactive) and the GI50 [3] was > 88.3 µM (inactive). For the same compound, the GI50 [4] was > 65.9 µM (inactive), the GI50 [5] was over 100 µM and the GI50 [6] was 23.8 µM (inactive). For the same compound, the GI50 [7] was 26.9 µM (inactive), the GI50 [8] was > 100 µM (inactive) and the GI50 [10] was > 69.5 µM (inactive). For the same compound, the GI50 [11] was 37.8 µM (inactive), the GI50 [12] was 9.46 µM (inactive) and the GI50 [17] was > 100 µM (inactive). For the same compound, the GI50 [18] was 4.85 µM (inactive), the GI50 [13] was 49.9 µM (inactive) and the GI50 [14] was > 83 µM (inactive). For the same compound, the GI50 [15] was > 100 µM (inactive), the GI50 [19] was > 49 µM (inactive) and the GI50 [16] was 19 µM (inactive).
For `COC(=O)C(O)P(=O)(OC)OC` (stereo not given), the GI50 [1] was > 100 µM (inactive), the GI50 [2] was > 100 µM (inactive) and the GI50 [3] was > 100 µM (inactive). For the same compound, the GI50 [4] was > 100 µM (inactive), the GI50 [5] was over 100 µM and the GI50 [6] was > 100 µM (inactive). For the same compound, the GI50 [7] was > 100 µM (inactive), the GI50 [8] was > 100 µM (inactive) and the GI50 [9] was > 100 µM (inactive). For the same compound, the GI50 [10] was > 100 µM (inactive), the GI50 [11] was > 100 µM (inactive) and the GI50 [12] was > 100 µM (inactive). The GI50 [17] was > 100 µM (inactive), the GI50 [13] was > 100 µM (inactive) and the GI50 [14] was > 100 µM (inactive). For the same compound, the GI50 [19] was > 100 µM (inactive) and the GI50 [16] was > 100 µM (inactive).
`Nc1cc(N)cc(Cc2ccccc2)c1` was tested, and the GI50 [1] was > 100 µM (inactive), the GI50 [2] was > 100 µM (inactive) and the GI50 [3] was > 100 µM (inactive). The GI50 [4] was > 100 µM (inactive), the GI50 [5] was over 100 µM and the GI50 [6] was > 100 µM (inactive). The GI50 [7] was > 100 µM (inactive), the GI50 [8] was > 100 µM (inactive) and the GI50 [9] was > 100 µM (inactive). For the same compound, the GI50 [10] was > 100 µM (inactive), the GI50 [11] was > 100 µM (inactive) and the GI50 [12] was > 100 µM (inactive). For the same compound, the GI50 [17] was > 100 µM (inactive), the GI50 [18] was > 100 µM (inactive) and the GI50 [13] was > 100 µM (inactive). The GI50 [14] was > 100 µM (inactive), the GI50 [19] was > 100 µM (inactive) and the GI50 [16] was > 100 µM (inactive).
For `NC1CNC(=O)c2cscc21` (stereo not given), the GI50 [1] was > 100 µM (inactive), the GI50 [2] was > 100 µM (inactive) and the GI50 [3] was > 100 µM (inactive). For the same compound, the GI50 [4] was > 100 µM (inactive), the GI50 [5] was over 100 µM and the GI50 [6] was > 100 µM (inactive). For the same compound, the GI50 [7] was > 100 µM (inactive), the GI50 [9] was > 100 µM (inactive) and the GI50 [10] was > 100 µM (inactive). The GI50 [11] was > 100 µM (inactive), the GI50 [12] was > 100 µM (inactive) and the GI50 [18] was > 100 µM (inactive). For the same compound, the GI50 [13] was > 100 µM (inactive), the GI50 [19] was > 100 µM (inactive) and the GI50 [16] was > 100 µM (inactive).
For `CCN(CC)CCCC(C)Nc1ccnc(/C=C/c2ccc(Cl)cc2)c1` (stereo not given), the GI50 [1] was 1.56 µM (inactive), the GI50 [2] was 1.41 µM (inactive) and the GI50 [3] was 4.2 µM (inactive). For the same compound, the GI50 [4] was 2.19 µM (inactive), the GI50 [5] was 1.82 µM and the GI50 [6] was 3.4 µM (inactive). For the same compound, the GI50 [7] was 2.61 µM (inactive), the GI50 [9] was 2.3 µM (inactive) and the GI50 [10] was 3.51 µM (inactive). The GI50 [11] was 1.35 µM (inactive), the GI50 [12] was 1.26 µM (inactive) and the GI50 [17] was 3.61 µM (inactive). The GI50 [18] was 1.2 µM (inactive), the GI50 [13] was 2.02 µM (inactive) and the GI50 [14] was 3.43 µM (inactive). The GI50 [15] was 1.77 µM (inactive), the GI50 [19] was 1.26 µM (inactive) and the GI50 [16] was 2.07 µM (inactive).
In the case of `Cc1ccc(S(=O)(=O)NCCN(CCNS(=O)(=O)c2ccc(C)cc2)S(=O)(=O)c2ccc(C)cc2)cc1`, the GI50 [1] was 30.8 µM (inactive), the GI50 [2] was 43.7 µM (inactive) and the GI50 [3] was 85.1 µM (inactive). The GI50 [4] was > 100 µM (inactive), the GI50 [5] was over 100 µM and the GI50 [6] was 46.7 µM (inactive). The GI50 [7] was > 100 µM (inactive), the GI50 [9] was > 100 µM (inactive) and the GI50 [10] was 6.53 µM (inactive). The GI50 [11] was > 100 µM (inactive), the GI50 [12] was 40.1 µM (inactive) and the GI50 [17] was 43.1 µM (inactive). For the same compound, the GI50 [18] was > 100 µM (inactive), the GI50 [13] was > 100 µM (inactive) and the GI50 [14] was 94.6 µM (inactive). The GI50 [16] was > 100 µM (inactive).
For `C=C1C(=O)OC2C3C(=C)[C@@H](OC(C)=O)CC3C(C)=CC(OC(=O)C(C)(OC(C)=O)C(C)OC(C)=O)[C@@H]12` (stereo not given in full), the GI50 [1] was 13.5 µM (inactive), the GI50 [2] was 16.6 µM (inactive) and the GI50 [3] was 16.6 µM (inactive). The GI50 [4] was 18.5 µM (inactive), the GI50 [5] was 12.8 µM and the GI50 [6] was 85.7 µM (inactive). The GI50 [7] was 21.9 µM (inactive), the GI50 [8] was 23.8 µM (inactive) and the GI50 [9] was 22.2 µM (inactive). The GI50 [10] was 13.3 µM (inactive), the GI50 [11] was 14.8 µM (inactive) and the GI50 [12] was 13.4 µM (inactive). The GI50 [17] was 83.2 µM (inactive), the GI50 [18] was 3.25 µM (inactive) and the GI50 [13] was 16.8 µM (inactive). For the same compound, the GI50 [14] was 30.1 µM (inactive), the GI50 [15] was 18.9 µM (inactive) and the GI50 [16] was 15.7 µM (inactive).
